Measured values as given in ChEMBL document CHEMBL1158980, “Bioactive neolignans from Endlicheria dysodantha” (J Nat Prod, 1991).
Values after ≈ are worked out from the molar mass of the structure shown. Active and inactive are the calls of the source. The rule behind the calls is not given here.

Columns and labels:
MCF7 = test: Cytotoxicity against human MCF7 cells; type: functional; settings: read-out: ED50 (the source's name)
HT-29 = test: Cytotoxicity against human HT-29 cells; type: functional; settings: read-out: ED50 (the source's name)
A549 = test: Cytotoxicity against human A549 cells; type: functional; settings: read-out: ED50 (the source's name)
Artemia = test: Toxicity against brine shrimp; type: organism-based; settings: in vivo
[1] = test system: Agrobacterium tumefaciens; test: Antitumor activity against Agrobacterium tumefaciens-induced crown gall tumor in potato tubers; type: functional

COc1cccc2c1C(=O)c1c(O)c3c(c(O)c1C2=O)C[C@@](O)(C(=O)CO)C[C@@H]3O[C@H]1C[C@H](N)[C@H](O)[C@H](C)O1 [DOXORUBICIN]
EC50 (MCF7): 0.115 µg/mL (≈ 0.212 µM) | EC50 (HT-29): 0.0344 µg/mL (≈ 0.0633 µM) | EC50 (A549): 0.0292 µg/mL (≈ 0.0537 µM) | LC50 (Artemia): 4.05 ppm | inhibition (INH) [1]: 68.8%

C=CC[C@@]12C[C@@H](OC)C(=O)C=C1O[C@@H](c1cc(OC)c(OC)c(OC)c1)[C@H]2C [DYSODANTHIN B]
EC50 (MCF7): 4.09 µg/mL (≈ 10.5 µM) | EC50 (HT-29): 2.76 µg/mL (≈ 7.1 µM) | EC50 (A549): 3.68 µg/mL (≈ 9.47 µM) | LC50 (Artemia): 334.2 ppm | inhibition (INH) [1]: 52%

C=CC[C@]12C=C(OC)C(=O)C=C1O[C@@H](c1cc(OC)c3c(c1)OCO3)[C@H]2C
EC50 (MCF7): 79 µg/mL (≈ 213 µM) | EC50 (HT-29): 96.5 µg/mL (≈ 261 µM) | EC50 (A549): > 100 µg/mL | LC50 (Artemia): 162.1 ppm | inhibition [1]: inactive

C=CC[C@@]12C[C@@H](OC)C(=O)C=C1O[C@@H](c1cc(OC)c3c(c1)OCO3)[C@H]2C [DYSODANTHIN A]
EC50 (MCF7): 5.51 µg/mL (≈ 14.8 µM) | EC50 (HT-29): 2.39 µg/mL (≈ 6.42 µM) | EC50 (A549): 4.23 µg/mL (≈ 11.4 µM) | LC50 (Artemia): 47.53 ppm | inhibition (INH) [1]: 32.2%

C=CC[C@]1([C@H](C)[C@@H](OC(C)=O)c2cc(OC)c(OC)c(OC)c2)C[C@@H](OC)C=CC1=O [MEGAPHONE ACETATE]
EC50 (MCF7): 3.66 µg/mL | EC50 (HT-29): 0.552 µg/mL | EC50 (A549): 2.59 µg/mL | LC50 (Artemia): 253.6 ppm | inhibition (INH) [1]: 48.3%
